One molecule from patent publication US4230719A, “Novel 2-[4-(3-methyl-2-thienyl)phenyl]propionic acid and pharmaceutically acceptable salt thereof and method for treating symptoms of inflammation and pain” (Toyama Chemical Co., Ltd., priority 1977, dated 1980) can be followed below.

The subject of test [1] is prostaglandin biosynthesis (homogenate of guinea pig's lung). Nature of the test: Inhibitory action on prostaglandin biosynthesis (TBA method). The settings on record: read-out: ID50.
Excerpt: Using a homogenate of guinea pig's lung as an enzyme preparation for the biosynthesis of prostaglandin, the inhibitory activity of the test compound against the prostaglandin biosynthesis was examined by the TBA (thiobarbituric acid) method.
Test [2] relates to fever (Mycobacterium butyricum). Nature of the test: Antipyretic action. In kind it is in vivo, rat (Wistar strain, female). The method, then: A suspension (0.6 mg/0.1 ml) of killed and dried Mycobacterium butyricum in liquid paraffin was subcutaneously injected in an amount of 0.1 ml into the subplantar region of the hind paw of each Wistar strain female rat weighing about 180 g. After 14 hours, the fevered rats were divided into groups, and each test compound was orally administered to each group to examine the antipyretic effect.

Test [3] has as its system threshold value of pain due to pressure stimuli (tail). The settings on record: for Analgesic effect: 100% = threshold raised by 160 g.
For a further test, the system named is uric acid in plasma. Nature of the test: Uricosuric action (b), uric acid in plasma of uric acid loaded rats. In kind it is in vivo, rat (Wistar strain, male). As for the experimental part: (b) After fasting overnight, the test compound was orally administered to a Wistar strain male rat weighing 150 to 200 g. After one hour, the rat was loaded with 100 mg/kg of uric acid by intraperitoneal administration. Thirty minutes thereafter, a blood sample was drawn from the cervical vein and the uric acid concentration in the plasma was determined by use of a kit (Uric acid test Wako) for the uric acid determination.

Test [4] concerns Phenol Red (PSP) excretion. Nature of the test: Uricosuric action (a), inhibition of Phenol Red (PSP) excretion. The format is in vivo, rabbit (male). As for the experimental part: (a) The action was examined by the method of B. B. Brodie et al. who reported that the inhibitory action on Phenol Red (PSP) excretion correlates with the uricosuric action [Proc. Soc. Exp. Biol. Med., 86, 884 (1954)]. To a male rabbit weighing 2 to 3 kg was intraperitoneally administered the test compound. After 30 minutes, 75 mg/kg of a Phenol Red suspension was injected into the pinna vein of the rabbit and 30 minutes thereafter a blood sample was drawn from the pinna vein. The blood sample was centrifuged and the serum was diluted with physiological saline. The diluted serum was treated with 0.1 N NaOH to develop the color. The concentration of Phenol Red in the serum was determined from the absorbance at 560 mμ.

A further test deals with Glomerulonephritis. Nature of the test: Action on glomerulonephritis in rats. In kind it is in vivo, rat (Wistar strain, male). The settings on record: 25 mg/kg p.o./day. An excerpt:
(ii) Action on glomerulonephritis in rats
Glomerulonephritis was induced in Wistar strain male rats (each weighing 180 to 200 g) by use of an anti-rat's kidney rabbit serum obtained from the serum of a rabbit sensitized with a homogenate of rat's kidney cortice. To the rat producing stable proteinuria was orally administered the test compound repeatedly at the rate shown in Table 12 for 2 weeks, and the inhibition of uric protein was examined.

Read-outs that look alike come from different tables or passages of the source.

Broadly, the ED50 is the dose at which the effect has come halfway, by size or by number of responders. Turning to `CCCCC1C(=O)N(c2ccccc2)N(c2ccccc2)C1=O` [Phenylbutazone], the IC50 in test [1] was found to be 68 µM. Also, the “Mean decrease in temp.” value amounted to 0.27 °C in test [2] (5 mg/kg p.o.), 1.10 °C in test [2] (20 mg/kg p.o.) and 1.35 °C in test [2] (100 mg/kg p.o.). The molecule further came in with an ED1.0 in test [2] (Rattus norvegicus, po) of 26.5 mg/kg. For the same molecule, the Analgesic effect is listed as 26% in test [3] (25 mg/kg p.o.) and 70% in test [3] (100 mg/kg p.o.). For the same molecule, in test [3] (Mus musculus, po), the ED50 came out at 53 mg/kg. The “Uric acid concentration in plasma, mean ± S.E.” value came out at 5.3 ± 0.37 mg/dL in the test on uric acid in plasma (50 mg/kg p.o.) and 3.3 ± 0.25 mg/dL in the test on uric acid in plasma (100 mg/kg p.o.). For the same molecule, the “Concentration of PSP in serum, mean ± S.E.” value in test [4] (50 mg/kg i.p.) came out at 174.0 ± 5.0 µg/mL; in test [4] (100 mg/kg i.p.), 238.0 ± 15.9 µg/mL. In addition, the “Inhibition of uric protein” value amounted to 1.0% with Glomerulonephritis (7th day) and 11.2% with Glomerulonephritis (14th day).
